Laboratory results from US20080260716A1, “Method and Composition for High Level Disinfection Employing Quaternary Ammonium Compounds” (priority 2004, published 2008).

Tested on: Mycobacterium terrae
Assay: AOAC tuberculocidal test, kill time
Format: cell-based
From the text: These standards are based on the known or possible risk of contamination of a particular medical device by a particular micro-organism, the pathogenic nature of the organism and other principles in infection control. […] The test panels and criteria are different for “low”, “intermediate” or “high-level disinfection”. These terms are herein used in accordance with current Food and Drug Administration (“FDA”) criteria for levels of disinfection which are detailed in Premarket Notification [510(k)] Submissions for Liquid Chemical Sterilants and High Level Disinfectants FDA 1997: “A germicide that inactivates all microbial pathogens except large number of bacterial endospores when used according to labelling”. In brief, the FDA regulatory requirement for high level disinfectants includes as the most challenging test a 100% kill of Mycobacterium tuberculosis var. bovis (or a specific strain of a suitable surrogate, such as Mycobacterium terrae) in 400 p.p.m. hard water in the presence of 2% horse serum in a quantitative tuberculocidal test.
In the following tables unless otherwise specified references to “kill time” mean the time required to achieve complete kill as defined in the relevant AOAC test (more particularly identified in annexure 1). “No kill” means less than 2 log reduction from the initial population. Unless otherwise specified “QUAT” is benzalkonium chloride, specifically Gardiquat NC-50 (Albright & Wilson). Test points for vegetative bacteria (M. terrae) were 2, 5, 10, 20 and 60 mins. Test points for spores were 0.5, 1, 2, 4, 16, 24, 48 hours. The last column in each table indicates whether the tested combination satisfies the FDA requirement for high level disinfection (“HLD”) or fails to do so (“F”).
AOAC tests for determination of High level Disinfection as defined in current FDA criteria (detailed in “Premarket Notification [510(k)] Submissions for Liquid Chemical Sterilants and High Level Disinfectants FDA 1993”.):
AOAC Tuberculocidal Activity of Disinfectants
AOAC Ref No 965.12, AOAC Official Methods of Analysis (1995)

benzalkonium chloride [QUAT]
Kill Time M. terrae (Table 3 Prior art, 0.25% QUAT, 25° C.): >60 min
Kill Time M. terrae (Table 6 unnumbered test, 2% QUAT + 0.2% Protease (Savinase 16 L), 25° C. + 1% borax): >60 min
kill time of Mycobacterium terrae (above 1% w/w of quat, 40° C.): less than 5 mins
Kill Time Mycobacterium terrae (test 1.1, 0.025% QUAT, 25° C.): >60 min
Kill Time Mycobacterium terrae (test 1.2, 0.25% QUAT, 25° C.): >60 min
Kill Time Mycobacterium terrae (test 2.1, 5% QUAT, 30° C.): <5 min
Kill Time Mycobacterium terrae (test 2.2, 1.0% QUAT, 40° C.): <5 min
Kill Time Mycobacterium terrae (test 2.3, 2.0% QUAT, 40° C.): <5 min
Kill Time Mycobacterium terrae (test 2.4, 5.0% QUAT, 40° C.): <5 min
Kill Time Mycobacterium terrae (test 2.5, 1.0% QUAT, 50° C.): <5 min
Kill Time Mycobacterium terrae (test 2.6, 2.0% QUAT, 50° C.): <5 min
Kill Time Mycobacterium terrae (test 2.7, 5.0% QUAT, 50° C.): <5 min
Kill Time Mycobacterium terrae (test 2.8, 1.0% QUAT, 80° C.): <5 min
Kill Time M. terrae (test 3.1, 0.25% QUAT, 40° C.): >60 min
Kill Time M. terrae (test 3.2, 0.25% QUAT, 50° C.): >60 min
Kill Time M. terrae (test 3.3, 0.25% QUAT, 60° C.): >60 min
Kill Time M. terrae (test 3.4, 0.25% QUAT, 62° C. + ultrasound): >60 min
Kill Time M. terrae (test 3.5, 1.0% QUAT, 25° C.): >60 min
Kill Time M. terrae (test 3.6, 2.0% QUAT, 25° C.): >60 min
Kill Time M. terrae (test 3.7, 5.0% QUAT, 25° C.): >60 min
Kill Time M. terrae (test 3.8, 0.6%, 40° C.): >60 min
Kill Time M. terrae (test 3.9, 0.6% QUAT, 50° C.): >20 min
Kill Time M. terrae (test 4.1, 2% QUAT, 25° C. + 1% borax): >60 min
Kill Time M. terrae (test 4.2, 5% QUAT, 25° C. + 1% borax): >60 min
Kill Time M. terrae (test 4.3, 1% QUAT, 40° C. + 1% borax): <5 min
Kill Time M. terrae (test 4.4, 2% QUAT, 40° C. + 1% borax): <2 min
Kill Time M. terrae (test 4.5, 5% QUAT, 40° C. + 1% borax): <2 min
Kill Time M. terrae (test 4.6, 2% QUAT, 50° C. + 1% borax): <2 min
Kill Time M. terrae (test 4.7, 5% QUAT, 50° C. + 1% borax): <2 min
Kill Time M. terrae (test 5.1, 1% QUAT, 40° C. + ultrasound 10 min each hour): <5 min
Kill Time M. terrae (test 5.2, 2% QUAT, 40° C. + ultrasound 10 min each hour): <5 min
Kill Time M. terrae (test 5.3, 5% QUAT, 40° C. + ultrasound 10 min each hour): <5 min
Kill Time M. terrae (test 5.4, 1% QUAT, 40° C. + ultrasound 10 min each hour): <5 min
Kill Time M. terrae (test 5.5, 2% QUAT + 1% borax, 40° C. + ultrasound 10 min each hour): <2 min
Kill Time M. terrae (test 5.6, 5% QUAT + 1% borax, 40° C. + ultrasound 10 min each hour): <2 min
Kill Time M. terrae (test 5.7, 2% QUAT + 1% borax + Protease, 40° C. + ultrasound 10 min each hour): <2 min
Kill Time M. terrae (test 6.1, 2% QUAT + 0.2% Protease (Savinase 16 L), 25° C.): >60 min
Kill Time M. terrae (test 6.2, 2% QUAT + 0.2% Protease (Savinase 16 L), 40° C.): <5 min
Kill Time M. terrae (test 6.3, 2% QUAT + 0.2% Protease (Savinase 16 L), 40° C. + 1% borax): <2 min
Kill Time M. terrae (test 6.4, 2% QUAT + 0.2% Protease (Savinase 16 L), 50° C.): <5 min
Kill Time M. terrae (test 6.5, 2% QUAT + 0.2% Protease (Savinase 16 L), 50° C. + 1% borax): <2 min
Kill Time M. terrae (test 6.6, 2% QUAT + 0.2% Protease (Savinase 16 L), 40° C. + ultrasound 10 min each hour + 1% borax): <2 min
Kill Time M. terrae (test 6.7, 2% QUAT + 1% borax + Protease, 40° C. + ultrasound 10 min each hour): <2 min
